Test results: patent publication US6414222B1, “Gene combinations for herbicide tolerance in corn” (Regents of the University of Minnesota, priority 1993, dated 2002)

Columns and labels:
[1] = molecular target: ACCase of S-2 tissue (Zea mays, UniProt Q41743); assay: ACCase activity, herbicide inhibition, S-2 tissue; assay type: biochemical, maize; conditions: on concentration basis
Method: (§1) Maize chloroplasts, isolated as described above, were suspended in buffer C (0.1 M Tricine-KOH, pH 8.0; 0.3 M glycerol, and 1 mM DTT) and homogenized in a glass tissue homogenizer. The disrupted chloroplast fraction was centrifuged at 16,000 g for 15 minutes. The supernatant was desalted on a Sephadex G-25 column (1.5×5 cm equilibrated with 0.1 M Tricine-KOH, pH 8.0; and 0.3 M glycerol) and assayed directly. ACCase activity (B. J. Nikolau et al., Arch. Biochem. Biophys., 211, 605-612 (1981)) was assayed at 30° C. in a 0.2 ml volume which contained 1 mM ATP, 3 mM acetyl coenzyme A, 2.5 mM MgCl2, 50 mM KCl, 0.5 mM DTT, and 15 mM [^14C]NaHCO3 (0.17 mCi/mmol). Reactions were initiated by addition of acetyl coenzyme A and stopped by addition of 25 μl of 12 N HCl. Product formation was determined by the radioactivity found in an acid stable fraction by liquid scintillation spectrometry. Enzyme activity was linear for 15 minutes.
Assays were conducted to determine if ACCase extracted from cell line S-2 was altered with respect to herbicide activity. ACCase activity of control tissue was 50% inhibited either by 1.5 μM sethoxydim, or by 0.25 μM haloxyfop. ACCase activity of S-2 tissue was inhibited 50% either by 70 μM sethoxydim, or by 1.8 μM haloxyfop, indicating at least 40-fold and 7-fold decreases in herbicide sensitivity on concentration basis, respectively.

[2] = tested on: ACCase of cell line 2167-9/2160-154 H-2; assay: Herbicide inhibition of ACCase, line H-2; assay type: biochemical, maize; conditions: cell line H-2
Method: as §1
Acetyl Coenzyme A Carboxylase (ACCase) was extracted from cell lines S-1, H-1 and H-2 and assayed as described in detail for maize cell line S-2, above.

[3] = tested on: acetyl-coenzyme A carboxylase (ACCase) (EC 6.4.1.2) in maize chloroplasts; assay: Acetyl-Coenzyme A Carboxylase (ACCase) activity of maize chloroplasts; assay type: biochemical
Method: as §1

[4] = tested on: inbred wildtype control plants; assay: Allelism testcross experiments, susceptible controls; assay type: in vivo, maize (Zea mays L.)
Method: Foliar applications of the herbicides were made to greenhouse- or field-grown seedlings at the three- to five-leaf stage. Herbicides were applied in a spray volume of 187 l/ha that includes 2.3 l/ha crop oil concentrate to enhance uptake. Sethoxydim and haloxyfop were applied using commercial formulations (Poast from BASF Corp and Verdict from Dow Elanco, respectively). Visual observations were recorded 14-21 days after herbicide treatments.
All F1 combinations (no reciprocals) between S1, S2, S3, H1 and H2 homozygotes were made, and these F1s were test crossed to susceptible inbred lines. The testcross progeny were grown in the greenhouse and treated with the herbicides. In Experiment 1, progeny from testcrosses with each of the ten F1 combinations were treated with 0.05 kg/ha sethoxydim for combinations involving only S lines or with 0.009 kg/ha haloxyfop for combinations involving either of the H lines. In Experiment 2, a selected subset of the F1 combinations was tested that used testcross families that were separately derived from those used in Experiment 1. Testcross progeny of S lines were treated with 0.03 kg/ha sethoxydim, and H1 and H2 progeny were treated with 0.009 kg/ha haloxyfop. In each experiment, known susceptible and heterozygous plants were included as controls.

[5] = tested on: tolerant cell line 2167-9/2160-154 S-2; assay: Callus growth on herbicide medium, line S-2; assay type: cell-based, maize
Method: Tolerant cell line 2167-9/2160-154 S-2 (“S-2”) was characterized to evaluate: (1) the magnitude of sethoxydim tolerance; (2) cross-tolerance of haloxyfop; and (3) the biochemical basis for the tolerance. Callus tissue from S-2 that had been maintained on 10 μM sethoxydim was transferred to media containing up to 100 μM sethoxydim. One-half gram of S-2 tissue was plated on a 7 cm filter paper as a lawn overlaying 50 ml agar-solidified culture medium containing 0, 0.5, 1.0, 2.0, 5.0, 10.0, 50.0 and 100 μM sethoxydim, and cultured for two weeks. Control cell line 2167-9/2160-154 was plated similarly on medium containing the same levels of sethoxydim. The control cell line growth after two weeks was inhibited 50% at 1 μM sethoxydim.

[6] = tested on: fatty acid synthetase; assay: [14C]malonyl-CoA incorporation into fatty acids, cell-free extracts from corn suspension cultures; assay type: biochemical, Black Mexican Sweet (BMS) corn
Method: Incorporation of [^14C]malonyl-Coenzyme A into fatty acids (P. B. Hoj et al., supra; and J. B. Ohlrogge et al., Proc. Natl. Acad. Sci. USA, 76, 1194-1198 (1979)) was assayed using cell-free preparations from BMS tissue culture. Cells harvested during logarithmic growth phase were frozen in liquid nitrogen, ground with a mortar and pestle, and thawed in a medium containing: 0.1 M HEPES-KOH, pH 7.5; 0.3 M glycerol, and 5 mM DTT (buffer:tissue, 2:1, v/w). The homogenate was centrifuged at 12,000 g for 20 minutes. The supernatant was filtered through miracloth and centrifuged (125,000 g) for 60 minutes and then filtered through miracloth and assayed. Assays were conducted at 25° C. in a 0.4 ml volume containing: 1.0 mM ATP, 0.32 mM NADPH, 0.38 mM NADH, 25 μM CoA, 10 μM acetyl-CoA, 25 μg acyl-carrier protein, and 12 μM malonyl-CoA (11.54 μCi/μmol). Reactions were initiated by addition of [^14C]malonyl CoA and stopped by addition of 0.4 ml 40% KOH. Label incorporation into fatty acids was determined as above. Chlorophyll (D. I. Arnon, Plant Physiol., 24, 1-15 (1949)) and protein (P. K. Smith et al., Anal. Biochem., 150, 76-85 (1985)) were determined as described therein.

[7] = tested on: plants regenerated from the S-2 cell line; assay: Whole plant sethoxydim spray, greenhouse, S-2 regenerated plants; assay type: in vivo, maize
Text: (§2) Groups of eight control (2167-9/2160-154 unselected) and eight S-2 plants were sprayed with either 0.0, 0.01, 0.05, 0.11, 0.22 or 0.44 kg/ha sethoxydim to determine whole plant sethoxydim-tolerance of greenhouse-grown plants. Control plants were killed by 0.05 kg/ha or more sethoxydim.

[8] = tested on: control (2167-9/2160-154 unselected) plants; assay: Whole plant sethoxydim spray, greenhouse, control regenerated plants; assay type: in vivo, maize; conditions: greenhouse-grown regenerated plants, sprayed
Text: as §2

Row | Compound | Fold decrease in herbicide sensitivity of ACCase, S-2 versus control [1] | Fold increase in herbicide concentration that inhibits ACCase activity by 50% vs unselected parent cell line [2] | Fold increase in herbicide concentration that inhibits ACCase activity by 50% vs unselected parent cell line ([2]; listed as haloxyfop) | Effect on ACCase in maize chloroplasts [3] | Response of wildtype control plants ([4]; 0.009 kg/ha haloxyfop) | IC50 ([5]; Zea mays, callus growth, read-out: Herbicide concentration inhibiting growth of S-2) | Fold increase in tolerance of S-2 versus control callus line (growth) ([5]; callus growth) | Effect on [14C]malonyl-CoA incorporation into fatty acids (fatty acid synthetase activity) ([6]; haloxyfop 1 μM) | Fold increase in herbicide concentration that inhibits ACCase activity by 50% vs unselected parent cell line ([2]; listed as sethoxydim) | Survival of S-2 plants ([7]; 0.44 kg/ha sethoxydim) | Shoot height of regenerated S-2 plants ([7]; 14 days after treatment with 0.44 kg/ha sethoxydim) | Fold more tolerance of S-2 plants than control ([7]; whole plant spray) | Response of inbred wildtype control plants ([4]; 0.05 kg/ha (Experiment 1) or 0.03 kg/ha (Experiment 2) sethoxydim) | Growth of S-2 callus ([5]; 100 μM sethoxydim, cultured two weeks) | Rate that killed control plants [8] | Effect on [14C]malonyl-CoA incorporation into fatty acids (fatty acid synthetase activity) ([6]; sethoxydim 10 μM)
1 | CC(Oc1ccc(Oc2ncc(C(F)(F)F)cc2Cl)cc1)C(=O)O (stereo not shown) [Haloxyfop, 2-[4-[[3-chloro-5-(trifluoromethyl)-2-pyridinyl]oxy]phenoxy]-propanoic acid] | ≥ 7 fold | 0 fold | no difference | inhibit | killed most, but not all | 650 nM | ~30 fold | did not inhibit | – | – | – | – | – | – | – | –
2 | CCCC(=NOCC)C1=C(O)CC(CC(C)SCC)CC1=O (stereo not shown) [Sethoxydim, 2-[1-(ethoxyimino)-butyl]-5-[2-(ethylthio)propyl]-3-hydroxy-2-cyclohexen-1-one] | – | 0 fold | – | inhibit | – | – | at least 100 fold | – | no difference | survived | only slightly reduced | at least 20 fold | all inbred wildtype plants died | not inhibited | ≥ 0.05 kg/ha | did not inhibit
